≈ marks a conversion by molar mass, not a printed value. Where two headings read alike, the source gives them in different places.
Experiments:
HBsAg = format: cell-based, hepatitis B virus
HBeAg = format: cell-based, hepatitis B virus
influenza A1 virus = experiment: Anti-influenza virus experiment in MDCK cells; format: cell-based; conditions: for IC50: 72 h, MDCK cells, 3 days
[1] = tested on: acute hepatic toxicity induced by carbon tetrachloride; experiment: Model of acute hepatic toxicity induced by carbon tetrachloride in rats; format: in vivo; conditions: blood 12 hours after final dose, X ± SD, n = 20
Experimental: 2. The Model of Acute Hepatic Toxicity Induced by Carbon Tetrachloride in Rats
Matured SD rats, male or female, weighing 250-350 g are used in the study. Animals are maintained with free access to standard rodent pellet food and water ad libitum.
All rats are randomly divided into 6 groups. All the other groups are treated with 0.5 ml/100 g of 50 percent carbon tetrachloride by hypodermic injection to induce acute hepatic toxicity model, except the control group, and are dosed one time simultaneously. Then all groups will be successively dosed at 4 hours and 8 hours, and the blood samples obtained at 12 hours after the final dose for determining ALT and AST. The animals are killed to measure their liver weight and to perform a pathological examination (Table 3).

cell Hep G2 2.2.15 = experiment: Toxicity to cell Hep G2 2.2.15 (MTT method); format: cell-based, human
[2] = cited from earlier work
central nervous system = conditions: in vivo; cited from earlier work
[3] = normal mice; cited from earlier work
[4] = tested on: smooth muscles of the intestines; conditions: cited from earlier work
gram-positive bacterium = conditions: in vitro; cited from earlier work
MT4 cells = experiment: Toxicity of compounds on MT4 cells (MTT method); format: cell-based; conditions: 6 days
Experimental: MT4 cells are cultured in 96-well plates (2×10^5 cells/ml, 0.1 ml/well) and the verifying compounds are added and compared against the positive control sample AZT, and the normal cell control group at the same time. Comparisons against DMSO control group and MT4 cell control group are also performed. The culture is maintained at 37° C., 5 percent CO2 for 6 days. The cell activities are tested by the MTT method to determine TC50.

[5] = tested on: acute liver injury induced by thioacetamide; experiment: Model of acute liver injury induced by thioacetamide in mice; format: in vivo, Kunming mice; conditions: thioacetamide 30 mg/kg, X ± SD, n = 20; for ALT / AST: blood 24 hours after final dose
Experimental: The model of acute liver injury induced by thioacetamide in mice Experimental animals: Kunming mice, male or female, weighing 19-22 g, are used in the study. Animals are housed in an animal room with a natural photoperiod and room temperature (23±2° C.), and maintained with free access to standard rodent pellet food and water ad libitum. […] All mice are randomly divided to 7 groups. […] Then all groups are successively dosed three times at an interval of 3 hours, 6 hours and 9 hours after being infected, and the blood samples were obtained at 24 hours (i.e. the next day) after the final dose. The follow markers and liver weight were measured and also the pathological examination were performed (Table 2).

[6] = tested on: arrhythmia induced by aconitine; experiment: Arrhythmia induced by aconitine in rats; format: in vivo, Wistar rats; conditions: for preventive effects on arrhythmia induced by aconitine (in words): intravenously injected, aconitine dosage increased, VT/VF postponed
Experimental: The antagonistic effects of the dehydrocavidine species compounds on arrhythmia induced by aconitine
The samples are dissolved in hot normal saline up to the needed concentration. Normal saline serves as the control solution. Propafenone serves as a positive control sample.
Wistar rats of both sexes are randomly grouped and anesthetized by urethane (1.2 g/kg), II lead electrocardiogram is recorded. The groups are administered the following drugs by vena femoralis injection: (1) the compound (5 mg/kg, if possible 2.5 mg/kg), (2) propafenone (7 mg/kg), (3) control solution (2 mg/kg). After 5 minutes, aconitine solution (5 μg/ml) was delivered intravenously at a constant speed of 0.08 ml/min. The volume of aconitine solution is recorded when VP, VT and VF occur, and the electrocardiogram is also recorded. EV50 (VF) values are calculated by regression analysis on the basis of the dosage of aconitine consumed by VF in each experiment.

[7] = tested on: hepatic toxicity induced by D-galactosamine; experiment: Model of hepatic toxicity induced by D-galactosamine in rats; format: in vivo; conditions: D-galactosamine 800 mg/kg i.p. (Table 4), X ± SD, n = 20
Experimental: 3. The Model of Hepatic Toxicity Induced by D-Galactosamine in Rats […] Animals are maintained with free access to standard rodent pellet food and water ad libitum. All rats are randomly divided into 4 groups. All groups except the control group are treated simultaneously with 800 mg/kg of 50 percent D-galactosamine by intraperitoneal injection to induce acute hepatic toxicity model. The blood samples are obtained 12 hours after the final dose for determining SGPT and TBIL. The animals are killed to measure their liver weight and to perform a pathological examination (Table 4).

HIV-1 III B = experiment: Inhibition of HIV-induced MT4 cell pathological effects (CPE); format: cell-based; conditions: for IC50: 50 percent effective concentration, CPE in MT4 cells, 72 hours
Experimental: HIV-1 III B comes from the USA; MT4 cell line comes from Japan.
To determine viral toxicity, HIV are diluted 10 fold in 8 serial [Chinese version is unclear, and this is an educated guess] and MT4 cell pathological effects are then observed in the culture solution of RPMI-1640. Calculated TCID50 is 10-6. The normal cell control group and virus control group are also performed. The samples with five concentrations per group that are diluted by 2 times and 100 μl AZT are added in cell or virus cultures. All concentrations of samples are performed in three repeated wells. The experiments are maintained at 37° C., 5 percent CO2 for 72 hours. Then the cell pathological effects (CPE) are observed under an inverted microscope. IC50 and selective index SI (TC50/IC50) are calculated in Table 7.

[8] = tested on: liver fibrosis induced by carbon tetrachloride; experiment: Model of liver fibrosis induced by carbon tetrachloride in rats; format: in vivo, Wistar male rats; conditions: chronic carbon tetrachloride 12 weeks, treated one time a day for 8 weeks, X ± SD, n = 20
Experimental: 4. The Model of Liver Fibrosis Induced by Carbon Tetrachloride in Rats
Wistar male rats, weighing 100-150 g are used in the study. Animals are housed in an animal room with a 12 h: 12 h photoperiod and at 22° C. Animals are maintained with free access to standard rodent pellet food and water ad libitum
All Wistar male rats are treated with 0.3 ml/(100 g body weight) of 40 percent carbon tetrachloride (dissolved in peanut oil) by hypodermic injection twice a week for 12 weeks to induce […] hepatic fibrosis model, all in phase IV. Then all rats in hepatic fibrosis are randomly divided into the following groups: normal saline (NS) group, sample group and positive contrast group. The NS group rats are treated with 0.2 ml normal saline by intramuscular injection for 8 weeks, and simultaneously, all the other groups are treated with samples one time a day for 8 weeks. […] After that, all rats are killed, and the right lobes of the livers are fixed in neutral formaldehyde solution for histological examination.

bacteria = conditions: cited from earlier work

Row | Compound | IC50 (influenza A1 virus) [µM] | ALT [1] | AST [1] | Inhibition frequency to HBsAg (%) (HBsAg; concentration 0.1 μmol/ml) | Inhibition frequency to HBsAg (%) (HBsAg; concentration 0.2 μmol/ml) | Inhibition frequency to HBsAg (%) (HBsAg; concentration 0.4 μmol/ml) | Toxicity to cell (cell Hep G2 2.2.15; concentration 0.1 μmol/ml) | Toxicity to cell (cell Hep G2 2.2.15; concentration 0.2 μmol/ml) | Toxicity to cell (cell Hep G2 2.2.15; concentration 0.4 μmol/ml) | inhibitory effects on influenza viruses (in words) (influenza A1 virus) | Inhibition frequency to HBeAg (%) (HBeAg; concentration 0.1 μmol/ml) | Inhibition frequency to HBeAg (%) (HBeAg; concentration 0.2 μmol/ml) | Inhibition frequency to HBeAg (%) (HBeAg; concentration 0.4 μmol/ml) | TC50 (MT4 cells) [µg/mL] | Liver index (g liver wt./100 g body wt.) [5] | ALT [5] | AST [5] | preventive effects on arrhythmia induced by aconitine (in words) [6] | ALT [7] | AST [7] | other results
1 | Nc1ccn([C@@H]2CS[C@H](CO)O2)c(=O)n1 [3TC, reference compound] | – | – | – | – | – | – | – | – | – | – | – | – | – | – | – | – | – | – | – | – | Inhibition frequency to HBsAg (%) (HBsAg; concentration 1.0 μmol/ml): 4.8%; Inhibition frequency to HBeAg (%) (HBeAg; concentration 1.0 μmol/ml): 24.5%
2 | NC(=O)c1ncn([C@@H]2O[C@H](CO)[C@@H](O)[C@H]2O)n1 [Ribavirin, reference compound] | 3.2 | – | – | – | – | – | – | – | – | – | – | – | – | – | – | – | – | – | – | – | –
3 | COc1cc2c(cc1OC)-c1c(C)c3ccc4c(c3c[n+]1CC2)OCO4 [dehydrocavidine] | 7.4 | 774.30 ± 217.11 | 1116.54 ± 348.27 | 28.4 | 31.4 | 34.6 | − (“no obvious toxicity” means cell livability ≧75% using MTT method) | − (“no obvious toxicity” means cell livability ≧75% using MTT method) | − (“no obvious toxicity” means cell livability ≧75% using MTT method) | markedly inhibitory effects on influenza viruses | 20.5 | 21.6 | 57.2 | >1000 | 5.36 ± 0.54 g liver wt./100 g body wt. | 873.50 ± 251.82 | 237.10 ± 73.27 | certain preventive effects on arrhythmia induced by aconitine | 846.28 ± 172.54 | 241.20 ± 65.53 | production of glycogen in vivo [2]: effect on increasing the production of glycogen in vivo; effects on the central nervous system (central nervous system): sedative effects on the central nervous system; effects on blood sugar levels [3]: no effects on the blood sugar levels in normal mice; effects on the smooth muscles of the intestines [4]: antispasm effects on the smooth muscles of the intestines; inhibitory effect on gram-positive bacterium (gram-positive bacterium): certain inhibitory effect on gram-positive bacterium; ED50 ([6]; Rattus norvegicus, read-out: ED50 (10^−6 mol/Kg)): 7.33 µmol/kg; Liver index (g liver wt./100 g body wt.) [7]: 5.10 ± 0.36 g liver wt./100 g body wt.; inhibitory effects on HIV viruses (in words) (HIV-1 III B): certain inhibitory effects on HIV viruses; IC50 (HIV-1 III B; Human immunodeficiency virus 1, read-out: IC50): 12.5 µg/mL; ALT [8]: 1113.4 ± 247.6; AST [8]: 987.3 ± 237.9; Hydroxy-prodine in Liver [8]: 0.162 ± 0.013; antibacterial effect in vitro (bacteria): antibacterial effect in vitro
4 | Cc1cn([C@H]2C[C@H](N=[N+]=[N-])[C@@H](CO)O2)c(=O)[nH]c1=O [AZT, zidouvding, reference compound] | – | – | – | – | – | – | – | – | – | – | – | – | – | 500 (≈ 1870 µM) | – | – | – | – | – | – | IC50 (HIV-1 III B): 0.1 µg/mL (≈ 0.374 µM)
5 | COc1cc2cc[n+]3cc4c5c(ccc4c(C)c3c2cc1O)OCO5 [dehydroapocavidine] | – | 955.36 ± 327.18 | 903.52 ± 256.94 | 15.7 | 21.3 | 28.6 | − (“no obvious toxicity” means cell livability ≧75% using MTT method) | − (“no obvious toxicity” means cell livability ≧75% using MTT method) | − (“no obvious toxicity” means cell livability ≧75% using MTT method) | markedly inhibitory effects on influenza viruses | 26.5 | 33.5 | 62.1 | 250 | 5.14 ± 0.48 g liver wt./100 g body wt. | 823.26 ± 178.42 | 241.13 ± 62.81 | certain preventive effects on arrhythmia induced by aconitine | 1027.10 ± 277.38 | 345.20 ± 68.29 | ED50 (10^−6 mol/Kg) ([6]; rats, vena femoralis injection, regression on aconitine dosage consumed by VF): 4.26 10^−6 mol/Kg; Liver index (g liver wt./100 g body wt.) [7]: 4.47 ± 0.47 g liver wt./100 g body wt.; inhibitory effects on HIV viruses (in words) (HIV-1 III B): certain inhibitory effects on HIV viruses; IC50 (HIV-1 III B): 6.25 µg/mL; ALT [8]: 973.2 ± 273.5; AST [8]: 1057.1 ± 338.7; Hydroxy-prodine in Liver [8]: 0.175 ± 0.018

Reference: patent US7732458B2 (priority 2004, dated 2010)
